# Reference: patent US8557737B2, “Methods of altering poppy characteristics” (priority 2005, dated 2013)
# What was measured:
# Assay type in all cases: in vivo, Papaver somniferum
# poppy crops [1] = assay: Example 1: field trial, metsulfuron-methyl 36 or 120 mg/ha at 12-14 leaf and ground cover, morphine crop
# Protocol: (§1) All trials were conducted on poppy crops. Seed was treated with Thiram (5.6 g of Thiram 800/kg seed) and Apron (4 g/kg) and sown at a rate of approximately 750 g/ha. Fertilisers were applied at sowing. Most commonly, either 50:50 lime:superphosphate/triple superphosphate at 125 kg/ha, or lime:superphosphate at 250 kg/ha, were mixed with seed and drilled at a depth of 15 mm. In the same operation, NPK (nitrogen:phosphorus:potassium), at various rates, was banded 75 mm below the seed, unless otherwise stated. All crops were subjected to herbicide sprays for weed control, fungicide sprays for disease control, insecticide sprays if appropriate and were irrigated as required.
# (§2) All spray applications were made with a precision sprayer, using Silvan Lurmark flat-fan, low-drift nozzles (LD110-0015). Spray equipment was calibrated to deliver 153 L water/ha.
# (§3) At harvest, a 2 m×4 m quadrat was placed in each plot (3 m×6 m, unless otherwise stated) and capsules hand-picked from this area. Capsules were broken up, seed and capsule material separated and weighed. Capsule moisture readings were taken with a moisture meter. Alkaloid yield data were calculated on Pesticide Research Manager (version 5 for Windows) using the formulae below. Briefly, capsule weight was adjusted for moisture to a dry weight, 5% of seed weight was added to this (this amount of capsule material regularly occurs in seed samples after processing) to give a capsule weight per plot. Seed weight was adjusted to 95% of crude weight. Straw weights were determined by multiplying dry capsule weight by 1.3 (estimated amount of stem material in a commercial harvest) and adjusted to 11% moisture. When Lontrel was applied to crops exact capsule and seed weight data were entered. Analyses of variance and a Multiple Range Test were performed on data using Pesticide Research Manager. Significant differences (P=0.05) between treatments are denoted by different lower case letters adjacent to treatment means in the tables of results.
# Metsulfuron-methyl (Compound 1) was applied at a rate of 36 or 120 mg/ha at 12-14 leaf and ground cover growth stages, in a morphine crop.
# poppy crops [2] = assay: Example 6: field trial, one or two applications of metsulfuron-methyl after Sunny versus metsulfuron-methyl alone; settings: COMPOUND 1 120 MG/HA + PULSE .2 % V/V at ERU and at BE (two applications, alone)
# Protocol: as §1, §2, §3
# Trial to evaluate one or two applications of 120 mg/ha metsulfuron-methyl (Compound 1) after 1 L/ha Sunny, and compare with two applications of metsulfuron-methyl alone. Sunny was applied with crop at 12-14 leaf, metsulfuron-methyl to crop at 12-14 leaf, early run-up and bud-emergence stages. Plant heights were measured at early-full flower and percent lodging was measured on the day of capsule harvest.
# poppy crops [3] = assay: Example 18: field trial, triasulfuron, mesosulfuron-methyl and metsulfuron-methyl at row cover, mid run-up and early hook, morphine crop; settings: Trt 2: COMPOUND 1 120 MG/HA + PULSE .2% V/V at RC, MRU and LRU
# Protocol: as §1, §2
# as §3, with “Manager.” for “Manager. Significant differences (P=0.05) between treatments are denoted by different lower case letters adjacent to treatment means in the tables of results.”
# Trial to evaluate applications of triasulfuron, mesosulfuron-methyl and metsulfuron-methyl, in a morphine crop. […] Plant heights were measured 5 weeks after last application and lodging at capsule harvest.
# poppy crops [4] = assay: Example 16: field trial, metsulfuron-methyl, mesosulfuron-methyl and triasulfuron at row cover and ground cover/early run-up, morphine crop; settings: Trt 2: COMPOUND 1 120 MG/HA + PULSE .2% V/V at RC and GC/ERU
# Protocol: as §1, §2
# as §3, with “Manager.” for “Manager. Significant differences (P=0.05) between treatments are denoted by different lower case letters adjacent to treatment means in the tables of results.”
# Trial to evaluate applications of metsulfuron-methyl (Compound 1), mesosulfuron-methyl (Compound 2) and triasulfuron (Compound 3), in a morphine crop. Treatment sprays were applied to crop at row cover and ground cover/early run-up, respectively. Plant heights were assessed 5 weeks after last application and lodging was assessed at capsule harvest.
# poppy crops [5] = assay: Example 3: field trial, metsulfuron-methyl alone or tank-mixed with Sunny at early-mid run-up, morphine crop; settings: COMPOUND 1 120 MG/HA + PULSE .2 % V/V at E-MRU
# Protocol: as §1, §2, §3
# Trial to evaluate metsulfuron-methyl (Compound 1) (120 mg/ha) applied alone, or tank-mixed with Sunny (1 L/ha=50 g/ha), in a morphine crop. Treatments were applied to crop at early-mid run-up, plant heights were measured at green capsule stage.
# poppy crops [6] = assay: Example 19: field trial, sulfosulfuron, thifensulfuron-methyl and metsulfuron-methyl, morphine crop; settings: 120 MG/HA + PULSE .2 % V/V, applied at M-LRU and LRU-BE
# Protocol: as §1, §2
# as §3, with “Manager.” for “Manager. Significant differences (P=0.05) between treatments are denoted by different lower case letters adjacent to treatment means in the tables of results.”
# Trial to evaluate applications of sulfosulfuron, thifensulfuron-methyl and metsulfuron-methyl, in a morphine crop. Treatment sprays were applied to crop at mid-late run-up and late-run-up/bud-emergence, respectively. Plant heights were measured some 10 weeks after the last application. Lodging was assessed at capsule harvest.
smiles,measurement,setting,value
"COC(=O)c1ccccc1S(=O)(=O)NC(=O)Nc1nc(C)nc(OC)n1 [Compound 1, metsulfuron-methyl]",CAPSULE/SEED RATIO,poppy crops [1]; 36 MG/HA at 12-14LF,0.603
same,CROP WEIGHT,poppy crops [1]; 36 MG/HA at 12-14LF,3.78 t/ha
same,MORPHINE,poppy crops [1]; 36 MG/HA at 12-14LF,24.25 kg/ha
same,SEED,poppy crops [1]; 36 MG/HA at 12-14LF,2020 kg/ha
same,STRAW,poppy crops [1]; 36 MG/HA at 12-14LF,1757 kg/ha
same,STRAW MORPHINE,poppy crops [1]; 36 MG/HA at 12-14LF,1.38%
same,CAPSULE/SEED RATIO,poppy crops [1]; 120 MG/HA at 12-14LF,0.673
same,CROP WEIGHT,poppy crops [1]; 120 MG/HA at 12-14LF,3.37 t/ha
same,MORPHINE,poppy crops [1]; 120 MG/HA at 12-14LF,24.40 kg/ha
same,SEED,poppy crops [1]; 120 MG/HA at 12-14LF,1710 kg/ha
same,STRAW,poppy crops [1]; 120 MG/HA at 12-14LF,1660 kg/ha
same,STRAW MORPHINE,poppy crops [1]; 120 MG/HA at 12-14LF,1.47%
same,CAPSULE/SEED RATIO,poppy crops [1]; 120 MG/HA at GC (ground cover),1.253
same,CROP WEIGHT,poppy crops [1]; 120 MG/HA at GC (ground cover),3.10 t/ha
same,MORPHINE,poppy crops [1]; 120 MG/HA at GC (ground cover),26.19 kg/ha
same,SEED,poppy crops [1]; 120 MG/HA at GC (ground cover),1105 kg/ha
same,STRAW,poppy crops [1]; 120 MG/HA at GC (ground cover),1999 kg/ha
same,STRAW MORPHINE,poppy crops [1]; 120 MG/HA at GC (ground cover),1.31%
same,CAPSULE/SEED RATIO,poppy crops [2],6.140 a
same,CROP WEIGHT,poppy crops [2],2.46 c t/ha
same,MORPHINE,poppy crops [2],38.8 b kg/ha
same,SEED,poppy crops [2],269 c kg/ha
same,STRAW,poppy crops [2],2194 a kg/ha
same,STRAW MORPHINE,poppy crops [2],1.77 b %
same,PLANT HEIGHT,poppy crops [2]; measured at early-full flower,77.4 cm·days
same,LODGING,poppy crops [2]; measured on the day of capsule harvest,1.0 b %
same,CAPS/SEED RATIO,poppy crops [3],2.543 a
same,CROP WEIGHT,poppy crops [3],2.87 b t/ha
same,MORPHINE,poppy crops [3],46.52 b kg/ha
same,SEED,poppy crops [3],643 c kg/ha
same,STRAW,poppy crops [3],2186 a kg/ha
same,STRAW MORPHINE,poppy crops [3],2.13 c %
same,PLANT HEIGHT,poppy crops [3]; 5 weeks after last application,88.0 cm·days
same,LODGING,poppy crops [3]; at capsule harvest,1.8 a %
same,CAPS/SEED RATIO,poppy crops [4],1.740 a
same,CROP WEIGHT,poppy crops [4],2.46 c t/ha
same,MORPHINE,poppy crops [4],37.76 bc kg/ha
same,SEED,poppy crops [4],698 d kg/ha
same,STRAW,poppy crops [4],1749 bc kg/ha
same,STRAW MORPHINE,poppy crops [4],2.15 ab %
same,PLANT HEIGHT,poppy crops [4]; 5 weeks after last application,90.0 c cm
same,CAPSULE/SEED RATIO,poppy crops [5],0.984 ab
same,CROP WEIGHT,poppy crops [5],1.52 ab t/ha
same,MORPHINE,poppy crops [5],20.88 a kg/ha
same,SEED,poppy crops [5],640 c kg/ha
same,STRAW,poppy crops [5],884 ab kg/ha
same,STRAW MORPHINE,poppy crops [5],2.36 a %
same,PLANT HEIGHT,poppy crops [5]; measured at green capsule stage,101.0 a cm
same,CAPSULE/SEED RATIO,poppy crops [6],6.352
same,CROP WEIGHT,poppy crops [6],1.33 t/ha
same,MORPHINE,poppy crops [6],21.65 kg/ha
same,SEED,poppy crops [6],131 kg/ha
same,STRAW,poppy crops [6],1203 kg/ha
same,STRAW MORPHINE %,poppy crops [6],1.80%
same,PLANT HEIGHT,poppy crops [6]; measured some 10 weeks after last application,72 cm
